Earlier results, collected in patent US7824714B2, “Chinese herb extract for treating dementia and preparation method thereof” (Development Center for Biotechnology, priority 2008, dated 2010).

How the values were obtained:
[1] = test system: mice having scopolamine dementia and Aβ dementia
brain cells = conditions: animal experiments

For `OC[C@H]1O[C@@H](Oc2c(O)cc(O)cc2C=Cc2ccc(O)cc2)[C@H](O)[C@@H](O)[C@@H]1O` [stilbene glucoside compound, 3,4′,5-trihydroxy-2-stilbenyl beta-D-glucoside], the memory capacity [1] is given as “increasing” and the “damage of brain cells caused by β-amyloid protein and hydrogen peroxide” value (brain cells) is given as “capable of preventing”.
